We go through 5 compounds from US20250041408A1, “SMALL MOLECULE IMMUNOPOTENTIATOR CONJUGATES OF NFKB ACTIVATORS AS ADJUVANTS WITH ENHANCED EFFICACY AND REDUCED TOXICITY” (THE UNIVERSITY OF CHICAGO, priority 2021, published 2025).

Series [1] can be described thus: Systemic cytokines in CT26 tumor model after intratumoral injection. It is filed as in vivo, Balb/c mice. The note with it: 2 h after intratumoral injection. On the procedure: FIGS. 17A-C (A) Outline of in vivo tumor model experiment. (B) Systemic IL-6 levels measured in the serum 2 h after intertumoral injection of compounds. (C) Systemic TNF-α levels measured in the serum 2 h after intertumoral injection of compounds.
0.2×10^6 CT-26 cells were injected subcutaneously into the flank of 6-week-old Balb/c mice (n=10 per group) in 100 μL of PBS. The tumor size was monitored on alternating days. Tumor volumes were measured using the equation V=1/2×L×W×W. When the tumors reached a size of approximately 75 mm3 (day 11), treatment was started. Various formulations (20 nmols of each agonist or PBS) were injected peritumorally every 4 days […]. Mice were euthanized when the tumors reached 20 mm in any linear dimension. Five mice for each group were used for blood analysis. Blood was collected two days post the first injection for hematological toxicity analysis and two hours post the second injection for systemic cytokine analysis.
After 11 days, the tumors were established and intratumoral injections were administered with the SMIP adjuvant and adjuvant dimers. At 2 h and 24 h after these injections, serum and blood were collected to examine systemic cytokines in the serum and perform a hematological analysis on the blood to better quantify adjuvant toxicity. Similar to the OVA vaccination model, the dimer adjuvants induced baseline levels of IL-6 and TNF-α as measured in the serum.

The conditions of series [2]: with CPG in vaccine formulations; vaccine protective effects maintained; cited from earlier work.
Series [3] deals with BMDMs. The series can be described thus: TNF-α in supernatant of BMDMs by ELISA. In kind it is cell-based, C57Bl/6 mice. The following applies: treated BMDMs; compared with pTLR7/8 and mTLR7/8. (In an ELISA, binding on a coated surface is turned into a signal by an enzyme label.)
The test system of a further series is OVA. The series can be described thus: Serum anti-OVA IgG titers after OVA immunization (ELISA). The following applies: immunized days 0 and 14; ELISA at 3 weeks. It is filed as in vivo, C57Bl/6 mice.
The next series has as its system cells from the dLNs. The series can be described thus: Cytokines from draining lymph node cells re-stimulated with OVA (CBA). In kind it is in vivo, C57Bl/6 mice. The following applies: re-stimulated with OVA for 48 hours.
In series [4] the test system is NF-κB in RAW-Blue 264.7 macrophage cells. The series can be described thus: RAW-Blue 264.7 macrophage NF-κB assay (polymeric immunomodulator). It is filed as cell-based. The following applies: incubated 18 h at 37° C; QUANTIBlue absorbance 620 nm. On the procedure:
Cells were incubated with each compound for 18 h at 37° C. Supernatant was removed and incubated with QUANTIBlue for 1 h, and the absorbance at 620 nm was measured. Error bars represent standard deviation (SD). Samples were run in triplicate.
RAW264.7 Macrophage (RAW-Blue) NF-κB assay: RAW-Blue cells (passage 5-15) were plated in a 96 well plate at a density of 100,000 cells/well in 180 μL DMEM containing 10% heat-inactivated FBS (HI-FBS) and selective antibiotics. The cells were treated with agonists for […] at 37° C. and 5% CO2. NF-κB activity was measured by a QUANTI-Blue (InvivoGen) assay and the absorbance was measured at 620 nm using a Multiskan FC plate reader (Thermo Scientific).

In series [5] the test system is BMDMs. The series can be described thus: Flow cytometry of costimulatory molecules CD40 and CD86 on BMDMs. It is filed as cell-based, C57Bl/6 mice. The following applies: 18 h at 37° C. On the procedure:
FIGS. 2A-B show immune activation as measured by costimulatory molecules CD40 (FIG. 2A) and CD86 (FIG. 2B) on BMDMs. Cells were incubated with each compound for 18 h at 37° C. Error bars represent SD. Samples were run in triplicate. […] Each experiment was repeated thrice with similar results.
Flow Cytometry for Cell Surface Marker Upregulation: BMDCs were plated in untreated 12-well plates at 1×10^6 cells/mL and incubated with agonists in culture media for 18 h at 37° C. with 5% CO2. The cells were released from the plate by pipetting vigorously and centrifuged at 2500 RPM at 4° C. for 10 min. The cell pellet was resuspended in cold FACS buffer (PBS, 10% FBS, and 0.1% sodium azide) buffer (300 μL) and incubated with CD16/32 FcR blocking antibodies (1.0 μg/1×10^6 cells) on ice for 15 min. The cell suspension was pelleted, and the supernatant was removed. Next, the cell pellet was resuspended in cold FACS buffer (100 μL) and stained for CD86 and CD40 in the dark for 30 min. The samples were then washed twice with 300 μL FACS buffer. The pelleted cells were resuspended in cold FACS buffer (200 μL) and kept on ice until being loaded onto the flow cytometer for analysis.

The structures appear in SMILES notation.

As for `CCCCCCCCCCCCCCCCCC(=O)NCCCCOn1c(CCCC)nc2c(N)nc3ccccc3c21` [Compound 3M-052], in series [1], the “systemic IL-6 levels in serum” value is listed as “comparable” and the “systemic TNF-α levels in serum” value is “comparable”.
As for `CCOCc1nc2c(N)nc3ccccc3c2n1CC(C)(C)O` [Compound R848, resiquimod], in series [1], the “systemic IL-6 levels in serum” value is “high levels” and the “systemic TNF-α levels in serum” value was “high levels”.
For `COc1cc(CNC(=O)CCCC/C=C/C(C)C)ccc1O` [capsaicin], the “pro-inflammatory systemic IL-6 and TNF-α levels” value in series [2] was “reduce”.
With `C=CCc1ccc(O)c(-c2ccc(O)c(CC=C)c2)c1` [honokiol], in series [2], the “pro-inflammatory systemic IL-6 and TNF-α levels” value is listed as “reduce”.
On to `CCCCc1nc2c(N)nc3ccccc3c2n1Cc1ccc(CNC(=O)CCCCCNC(=O)CCC(NC(=O)CNC(=O)C(CCC(=O)NCCCCCC(=O)NCc2ccc(Cn3c(CCCC)nc4c(N)nc5ccccc5c43)cc2)NC(=O)CNC(=O)C(CCC(=O)NCCCCCC(=O)NCc2ccc(Cn3c(CCCC)nc4c(N)nc5ccccc5c43)cc2)NC(=O)CNC(=O)C(CCC(=O)NCCCCCC(=O)NCc2ccc(Cn3c(CCCC)nc4c(N)nc5ccccc5c43)cc2)NC(=O)CNC(=O)C(CCC(=O)NCCCCCC(=O)NCc2ccc(Cn3c(CCCC)nc4c(N)nc5ccccc5c43)cc2)NC(=O)CCC(=O)N2Cc3ccccc3-c3nnn(CCCCCC(=O)NC(Cc4ccc(O)c(O)c4)C(=O)NC(Cc4ccc(O)c(O)c4)C(=O)NC(Cc4ccc(O)c(O)c4)C(=O)NC(Cc4ccc(O)c(O)c4)C(N)=O)c3-c3ccccc32)C(N)=O)cc1` (centres unmarked) [pTLR7/8_mod], for which the “TNF-α concentration in supernatant” value with BMDMs [3] is listed as “smallest increase”. In addition, the “serum titers of anti-OVA antibodies” value with OVA is reported as “Highest”. In the series with cells from the dLNs, the “amount of IL-6 (FIG. 6B) produced by dLN cells” value was “highest levels”, the “amount of IL-23 (FIG. 6A) produced by dLN cells” value is “highest levels” and the “amount of TNF-α (FIG. 6C) produced by dLN cells” value is reported as “highest levels”. The NF-κB levels result in series [4] is given as “increased”. In the series with BMDMs [5], the “levels of CD40” value is “greatest increase” and the “levels of CD86” value is recorded as “greatest increase”.
